Results as given in US20140073793A1, “Germanium-containing camptothecin analogues” (BioNumeric Pharmaceuticals, Inc., priority 2012, published 2014).
Where two headings read alike, the source gives them in different places.

How the values were obtained:
A2780/DX5 cells = test: cells; type: cell-based, human
Protocol: (§1) Wild type human ovarian cancer cells (A2780/WT) and doxorubicin-resistant human ovarian cancer cells (A2780/DX5) were cultured in RPMI 1640 medium supplemented with 10% fetal bovine serum and 2 mM glutamine, and grown in a 37° C. incubator with 5% CO2. BNP1350 (also designated 7-[2-trimethylsilyl)ethyl]-20(S)-camptothecin; BNP1350; and Karenitecin®); BNP1394 (also designated 7-[2′-trimethylgermanyl]ethyl-20(S) camptothecin; Topotecan; and 9-NH2-camptothecin were synthesized and purified at BioNumerik Pharmaceuticals, Inc., and dissolved in DMSO for use in cytotoxicity experiments where inhibition of cell growth was measured using the sulforhodamine B (SRB) assay to assess cytotoxicity and absorbance at 570 nm (A570) in order to calculate the percentage of cell control (or percent cell survival) SRB assay. See. e.g., Skehan P., Stieng R., Scudiero D., et al. New colorimetric cytotoxicity assay for anticancer-drug screen. J. Natl. Cancer Inst. 82:1107-1112 (1990)).
(§2) Briefly, cells were seeded (500 cells/well in 100 μL volume) to 96-well microliter plates and allowed to attach for 24 hours prior to treatment with BNP1350, BNP1394, Topotecan, and 9-NH2-camptothecin for 2 hours. Following this 2 hour treatment, BNP1350, BNP1394, Topotecan, and 9-NH2-camptothecin were removed, cells were washed with drug-free media (200 μL) and then drug-free media (200 μL) was added to the cells and cells were allowed to continue growing at 37° C. with 5% CO2 before the SRB assay was performed (total experiment time from time of seeding was 5 days, during which a total of five (5) cell-doublings occurred).
(§3) Wild-type human ovarian cancer cells (A2780/WT) and doxorubicin-resistant human ovarian cancer cells (A2780/DX5) were cultured in RPMI 1640 medium supplemented with 10% fetal bovine serum and 2 mM L-glutamine, and grown in a 37° C. incubator with 5% CO2. Population doubling times for the two cell lines used in this study encompassed a total of five cell doublings corresponding to approximately 5 days for A2780/WT and A2780/DX5 cells. Both cell lines were maintained as monolayered cultures in T-25 or T-75 flasks and then seeded to microliter plate wells for experiments described herein.
(§4) In brief, cells were seeded (500 cells/well in 100 μL total volume) into 96-well microliter plates and allowed to attach for 24 hours prior to treatment with BNP1350, BNP1394, Topotecan, or 9-NH2-camptothecin for 2 hours. The aforementioned compounds were dissolved in DMSO for use in cytotoxicity experiments where inhibition of cell growth was measured using the SRB assay.
(§5) Following this 2 hour drug treatment, the BNP1350, BNP1394, Topotecan, and 9-NH2-camptothecin were removed, cells were washed with drug-free media (200 μL) and then drug-free media (200 μL) was added to the cells and cells were allowed to continue growing at 37° C. with 5% CO2 before the SRB assay was performed (total experiment time from time of seeding was 5 days, during which time a total of 5 cell doublings had occurred).
(§6) The sulforhodamine B (SRB) cytotoxicity assay (see, Skehan P, et al., New colorimetric cytotoxicity assay for anticancer-drug screening. J. Natl. Cancer Inst. 82:1107-1112 (1990)) was used to determine the cytotoxic effects of BNP1350, BNP10120 or BNP10121 on cell growth in vitro. Briefly, after the medium was aspirated from individual plate wells, trichloroacetic acid (100 μL of 10.0% solution) was added to each well, and the plates were incubated at 4° C. for at least 1 hour. The plates were washed five-times with water using an automated microplate washer (Model EL 404, Bio-Tek Instruments), SRB solution (100 μL of 0.4 grams SRB dissolved in 100 mL 1.0 percent acetic acid) was added, and plates remained at room temperature for 15 minutes. The plates were then washed five-times using acetic acid (1.0%), air dried, and bound dye was solubilized in Tris base (150 μL, 10 mM). […]

A2780/WT cells = test: cells; type: cell-based, human
Protocol: as §1, §2, §3, §4, §5, §6

[1] = Homo sapiens, 2 hour drug treatment, SRB at 5 days, read-out: IC50 Test 1
[2] = Homo sapiens, 2 hour drug treatment, SRB at 5 days, read-out: IC50 Test 2
[3] = Homo sapiens, 2 hour drug treatment, SRB at 5 days, read-out: IC50 Test 3
[4] = Homo sapiens, 2 hour drug treatment, SRB at 5 days, read-out: IC50 Test 4
[5] = Homo sapiens, 2 hour drug treatment, SRB at 5 days, read-out: IC50 Test 5
[6] = 2 hour drug treatment, SRB at 5 days, read-out: IC50 Test 1
[7] = 2 hour drug treatment, SRB at 5 days, read-out: IC50 Test 2
[8] = 2 hour drug treatment, SRB at 5 days, read-out: IC50 Test 3
[9] = 2 hour drug treatment, SRB at 5 days, read-out: IC50 Test 4
[10] = 2 hour drug treatment, SRB at 5 days, read-out: IC50 Test 5
[11] = average of the tests, read-out: IC50 Average
[12] = 2 hour drug treatment, SRB at 5 days, read-out: IC50 Test 6
[13] = average of Tests 1-6, read-out: IC50 Average

| Compound | inhibition of cell growth (in words) (A2780/DX5 cells) | inhibition of cell growth (in words) (A2780/WT cells) | IC50 values (in words) (A2780/DX5 cells) | IC50 values (in words) (A2780/WT cells) | IC50 (A2780/DX5 cells; [6]) | IC50 (A2780/DX5 cells; [7]) | IC50 (A2780/DX5 cells; [8]) | IC50 (A2780/DX5 cells; [9]) | IC50 (A2780/DX5 cells; [10]) | IC50 (A2780/DX5 cells; [11]) | IC50 (A2780/WT cells; [6]) | IC50 (A2780/WT cells; [7]) | IC50 (A2780/WT cells; [8]) | IC50 (A2780/WT cells; [9]) | IC50 (A2780/WT cells; [10]) | IC50 (A2780/WT cells; [12]) | IC50 (A2780/WT cells; [13]) | other results |
| --- | --- | --- | --- | --- | --- | --- | --- | --- | --- | --- | --- | --- | --- | --- | --- | --- | --- | --- |
| CC[C@@]1(O)C(=O)OCc2c1cc1n(c2=O)Cc2cc3c(CN(C)C)c(O)ccc3nc2-1 [Topotecan, 9-dimethylaminomethyl-10-hydroxy camptothecin] | inhibitors | inhibitors | – | – | – | – | – | – | – | – | – | – | – | – | – | – | – | IC50 (A2780/DX5 cells; [1]): 550 nM; IC50 (A2780/DX5 cells; [2]): 800 nM; IC50 (A2780/DX5 cells; [3]): 2000 nM; IC50 (A2780/DX5 cells; [4]): 1000 nM; IC50 (A2780/DX5 cells; [5]): 2000 nM; IC50 (A2780/DX5 cells; Homo sapiens, average of the tests, read-out: IC50 Average): 1270 nM; IC50 (A2780/WT cells; [1]): 350 nM; IC50 (A2780/WT cells; [2]): 200 nM; IC50 (A2780/WT cells; [3]): 300 nM; IC50 (A2780/WT cells; [4]): 600 nM; IC50 (A2780/WT cells; [5]): 900 nM; IC50 (A2780/WT cells; Homo sapiens, 2 hour drug treatment, SRB at 5 days, read-out: IC50 Test 6): 600 nM; IC50 (A2780/WT cells; Homo sapiens, average of Tests 1-6, read-out: IC50 Average): 492 nM |
| CC[C@@]1(O)C(=O)OCc2c1cc1n(c2=O)Cc2c-1nc1ccccc1c2C[CH2][Ge]([CH3])([CH3])[CH3] [BNP1394, 7-[2′-trimethylgermanyl]ethyl-20(S) camptothecin] | inhibitors | inhibitors | nanomolar | nanomolar | – | – | – | – | – | – | – | – | – | – | – | – | – | – |
| CC[C@@]1(O)C(=O)OCc2c1cc1n(c2=O)Cc2cc3c(N)cccc3nc2-1 [9-NH2-camptothecin, 9-amino camptothecin] | inhibitors | inhibitors | – | – | 600 nM | 250 nM | 250 nM | 550 nM | 600 nM | 450 nM | 150 nM | 90 nM | 150 nM | 200 nM | 250 nM | 90 nM | 155 nM | – |
| CC[C@@]1(O)C(=O)OCc2c1cc1n(c2=O)Cc2c-1nc1ccccc1c2CC[Si](C)(C)C [BNP1350] | inhibitors | inhibitors | nanomolar | nanomolar | 15 nM | 15 nM | 15 nM | 24 nM | 10 nM | 16 nM | 15 nM | 15 nM | 15 nM | 20 nM | 13 nM | 16 nM | 15 nM | – |
